# US7396837B2, “Antitumoral analogs of lamellarins” (Pharma Mar, S.A.U., priority 2002, dated 2008)
# Tested on: HeLa
# Assay: SRB colorimetric cell growth inhibition assay, HeLa
# Format: cell-based
# Conditions: Homo sapiens, HeLa; GI=growth inhibition; read-out: GI50 HELA
# Outline: (§1)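 Growth inhibition (GI), cytostatic total growth inhibition (TGI) and cytotoxic cell-kill (LC) parameters were calculated from SRB-stained cultures held under constant compound exposure, triplicates averaged.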
row,SMILES,GI50 [nM]
1,COc1cc(-c2c3c4cc(OC)c(OC(=O)[C@@H](N)Cc5ccccc5)cc4oc(=O)c3n3ccc4cc(OC(=O)[C@@H](N)Cc5ccccc5)c(OC)cc4c23)ccc1OC(=O)[C@@H](N)Cc1ccccc1 [Compound 204],36.9

# Same assay, conditions: Homo sapiens, HeLa; cell killing (cytotoxic effect); read-out: LC50 HELA
row,SMILES,CC50 [nM]
1,COc1cc(-c2c3c4cc(OC)c(OC(=O)[C@@H](N)Cc5ccccc5)cc4oc(=O)c3n3ccc4cc(OC(=O)[C@@H](N)Cc5ccccc5)c(OC)cc4c23)ccc1OC(=O)[C@@H](N)Cc1ccccc1 [Compound 204],452

# Same assay, conditions: Homo sapiens, HeLa; total growth inhibition (cytostatic effect); read-out: TGI HELA
row,SMILES,IC (TGI) [nM]
1,COc1cc(-c2c3c4cc(OC)c(OC(=O)[C@@H](N)Cc5ccccc5)cc4oc(=O)c3n3ccc4cc(OC(=O)[C@@H](N)Cc5ccccc5)c(OC)cc4c23)ccc1OC(=O)[C@@H](N)Cc1ccccc1 [Compound 204],172

# Tested on: IGROV-ET
# Assay: SRB colorimetric cell growth inhibition assay, IGROV-ET (ET-743 resistant)
# Format: cell-based
# Conditions: Homo sapiens, IGROV-ET; GI=growth inhibition; read-out: GI50 IGROV-ET
# Outline: as §1
row,SMILES,GI50 [nM]
1,COc1cc(-c2c3c4cc(OC)c(OC(=O)[C@@H](N)Cc5ccccc5)cc4oc(=O)c3n3ccc4cc(OC(=O)[C@@H](N)Cc5ccccc5)c(OC)cc4c23)ccc1OC(=O)[C@@H](N)Cc1ccccc1 [Compound 204],18

# Same assay, conditions: Homo sapiens, IGROV-ET; cell killing (cytotoxic effect); read-out: LC50 IGROV-ET
row,SMILES,CC50 [nM]
1,COc1cc(-c2c3c4cc(OC)c(OC(=O)[C@@H](N)Cc5ccccc5)cc4oc(=O)c3n3ccc4cc(OC(=O)[C@@H](N)Cc5ccccc5)c(OC)cc4c23)ccc1OC(=O)[C@@H](N)Cc1ccccc1 [Compound 204],9520

# Same assay, conditions: Homo sapiens, IGROV-ET; total growth inhibition (cytostatic effect); read-out: TGI IGROV-ET
row,SMILES,IC (TGI) [nM]
1,COc1cc(-c2c3c4cc(OC)c(OC(=O)[C@@H](N)Cc5ccccc5)cc4oc(=O)c3n3ccc4cc(OC(=O)[C@@H](N)Cc5ccccc5)c(OC)cc4c23)ccc1OC(=O)[C@@H](N)Cc1ccccc1 [Compound 204],109

# Tested on: LoVo
# Assay: SRB colorimetric cell growth inhibition assay, LoVo
# Format: cell-based
# Conditions: Homo sapiens, LoVo; GI=growth inhibition; read-out: GI50 LOVO
# Outline: as §1
row,SMILES,GI50 [nM]
1,COc1cc(-c2c3c4cc(OC)c(OC(=O)[C@@H](N)Cc5ccccc5)cc4oc(=O)c3n3ccc4cc(OC(=O)[C@@H](N)Cc5ccccc5)c(OC)cc4c23)ccc1OC(=O)[C@@H](N)Cc1ccccc1 [Compound 204],113

# Same assay, conditions: Homo sapiens, LoVo; cell killing (cytotoxic effect); read-out: LC50 LOVO
row,SMILES,CC50 [nM]
1,COc1cc(-c2c3c4cc(OC)c(OC(=O)[C@@H](N)Cc5ccccc5)cc4oc(=O)c3n3ccc4cc(OC(=O)[C@@H](N)Cc5ccccc5)c(OC)cc4c23)ccc1OC(=O)[C@@H](N)Cc1ccccc1 [Compound 204],463

# Same assay, conditions: Homo sapiens, LoVo; total growth inhibition (cytostatic effect); read-out: TGI LOVO
row,SMILES,IC (TGI) [nM]
1,COc1cc(-c2c3c4cc(OC)c(OC(=O)[C@@H](N)Cc5ccccc5)cc4oc(=O)c3n3ccc4cc(OC(=O)[C@@H](N)Cc5ccccc5)c(OC)cc4c23)ccc1OC(=O)[C@@H](N)Cc1ccccc1 [Compound 204],228

# Tested on: SK-MEL-28
# Assay: SRB colorimetric cell growth inhibition assay, SK-MEL-28
# Format: cell-based
# Conditions: Homo sapiens, SK-MEL-28, MEL-28; GI=growth inhibition; read-out: GI50 MEL-28
# Outline: as §1
row,SMILES,GI50 [nM]
1,COc1cc(-c2c3c4cc(OC)c(OC(=O)[C@@H](N)Cc5ccccc5)cc4oc(=O)c3n3ccc4cc(OC(=O)[C@@H](N)Cc5ccccc5)c(OC)cc4c23)ccc1OC(=O)[C@@H](N)Cc1ccccc1 [Compound 204],26.8

# Same assay, conditions: Homo sapiens, SK-MEL-28, MEL-28; cell killing (cytotoxic effect); read-out: LC50 MEL-28
row,SMILES,CC50 [nM]
1,COc1cc(-c2c3c4cc(OC)c(OC(=O)[C@@H](N)Cc5ccccc5)cc4oc(=O)c3n3ccc4cc(OC(=O)[C@@H](N)Cc5ccccc5)c(OC)cc4c23)ccc1OC(=O)[C@@H](N)Cc1ccccc1 [Compound 204],7140

# Same assay, conditions: Homo sapiens, SK-MEL-28, MEL-28; total growth inhibition (cytostatic effect); read-out: TGI MEL-28
row,SMILES,IC (TGI) [nM]
1,COc1cc(-c2c3c4cc(OC)c(OC(=O)[C@@H](N)Cc5ccccc5)cc4oc(=O)c3n3ccc4cc(OC(=O)[C@@H](N)Cc5ccccc5)c(OC)cc4c23)ccc1OC(=O)[C@@H](N)Cc1ccccc1 [Compound 204],243

# Tested on: HT-29
# Assay: SRB colorimetric cell growth inhibition assay, HT-29
# Format: cell-based
# Conditions: Homo sapiens, HT-29, HT-29; GI=growth inhibition; read-out: GI50 HT-29
# Outline: as §1
row,SMILES,GI50 [nM]
1,COc1cc(-c2c3c4cc(OC)c(OC(=O)[C@@H](N)Cc5ccccc5)cc4oc(=O)c3n3ccc4cc(OC(=O)[C@@H](N)Cc5ccccc5)c(OC)cc4c23)ccc1OC(=O)[C@@H](N)Cc1ccccc1 [Compound 204],1400

# Same assay, conditions: Homo sapiens, HT-29, HT-29; cell killing (cytotoxic effect); read-out: LC50 HT-29
row,SMILES,CC50 [nM]
1,COc1cc(-c2c3c4cc(OC)c(OC(=O)[C@@H](N)Cc5ccccc5)cc4oc(=O)c3n3ccc4cc(OC(=O)[C@@H](N)Cc5ccccc5)c(OC)cc4c23)ccc1OC(=O)[C@@H](N)Cc1ccccc1 [Compound 204],9520

# Same assay, conditions: Homo sapiens, HT-29, HT-29; total growth inhibition (cytostatic effect); read-out: TGI HT-29
row,SMILES,IC (TGI) [nM]
1,COc1cc(-c2c3c4cc(OC)c(OC(=O)[C@@H](N)Cc5ccccc5)cc4oc(=O)c3n3ccc4cc(OC(=O)[C@@H](N)Cc5ccccc5)c(OC)cc4c23)ccc1OC(=O)[C@@H](N)Cc1ccccc1 [Compound 204],3800

# Tested on: DU-145
# Assay: SRB colorimetric cell growth inhibition assay, DU-145
# Format: cell-based
# Conditions: Homo sapiens, DU-145, DU-145; GI=growth inhibition; read-out: GI50 DU-145
# Outline: as §1
row,SMILES,GI50 [nM]
1,COc1cc(-c2c3c4cc(OC)c(OC(=O)[C@@H](N)Cc5ccccc5)cc4oc(=O)c3n3ccc4cc(OC(=O)[C@@H](N)Cc5ccccc5)c(OC)cc4c23)ccc1OC(=O)[C@@H](N)Cc1ccccc1 [Compound 204],5.63

# Same assay, conditions: Homo sapiens, DU-145, DU-145; cell killing (cytotoxic effect); read-out: LC50 DU-145
row,SMILES,CC50 [nM]
1,COc1cc(-c2c3c4cc(OC)c(OC(=O)[C@@H](N)Cc5ccccc5)cc4oc(=O)c3n3ccc4cc(OC(=O)[C@@H](N)Cc5ccccc5)c(OC)cc4c23)ccc1OC(=O)[C@@H](N)Cc1ccccc1 [Compound 204],44.7

# Same assay, conditions: Homo sapiens, DU-145, DU-145; total growth inhibition (cytostatic effect); read-out: TGI DU-145
row,SMILES,IC (TGI) [nM]
1,COc1cc(-c2c3c4cc(OC)c(OC(=O)[C@@H](N)Cc5ccccc5)cc4oc(=O)c3n3ccc4cc(OC(=O)[C@@H](N)Cc5ccccc5)c(OC)cc4c23)ccc1OC(=O)[C@@H](N)Cc1ccccc1 [Compound 204],17.4

# Tested on: A-549
# Assay: SRB colorimetric cell growth inhibition assay, A-549
# Format: cell-based
# Conditions: Homo sapiens, A549, A-549; GI=growth inhibition; read-out: GI50 A-549
# Outline: as §1
row,SMILES,GI50 [nM]
1,COc1cc(-c2c3c4cc(OC)c(OC(=O)[C@@H](N)Cc5ccccc5)cc4oc(=O)c3n3ccc4cc(OC(=O)[C@@H](N)Cc5ccccc5)c(OC)cc4c23)ccc1OC(=O)[C@@H](N)Cc1ccccc1 [Compound 204],31.1

# Same assay, conditions: Homo sapiens, A549, A-549; cell killing (cytotoxic effect); read-out: LC50 A-549
row,SMILES,CC50 [nM]
1,COc1cc(-c2c3c4cc(OC)c(OC(=O)[C@@H](N)Cc5ccccc5)cc4oc(=O)c3n3ccc4cc(OC(=O)[C@@H](N)Cc5ccccc5)c(OC)cc4c23)ccc1OC(=O)[C@@H](N)Cc1ccccc1 [Compound 204],9520

# Same assay, conditions: Homo sapiens, A549, A-549; total growth inhibition (cytostatic effect); read-out: TGI A-549
row,SMILES,IC (TGI) [nM]
1,COc1cc(-c2c3c4cc(OC)c(OC(=O)[C@@H](N)Cc5ccccc5)cc4oc(=O)c3n3ccc4cc(OC(=O)[C@@H](N)Cc5ccccc5)c(OC)cc4c23)ccc1OC(=O)[C@@H](N)Cc1ccccc1 [Compound 204],1000
